Experimental data as given in patent US6518243B1, “Desleucyl glycopeptide antibiotics and methods of making same” (Trustees of Princeton University, priority 1999, dated 2003).

How the values were obtained:
E. faceium (ATCC 49624) = experiment: Zone of inhibition screen, 96 well agar array format;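 note: score 3 means fourfold and score 4 sixteenfold the reference zone size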; type: cell-based, E. faecium
Experimental: The antibacterial activity of each of the compounds against the bacterial strains E. faceium (ATCC 49624), S. epidermidis (ATCC 12228), S. aureus (ATCC 29213), E. faecalis (CL 4877) and E. faecalis (ATCC 292121) was tested. Each of the compounds was screened in a 96 will agar array format.

E. faecalis (CL 4877) = experiment: as above; type: cell-based; design: scale not given here
Method in brief: (§1)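 Panel screening of every compound against several bacterial strains, among them E. faecium ATCC 49624, was done in a 96-well agar array.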

[1] = tested on: S. epidermidis (ATCC 12228); experiment: as above; type: cell-based; design: scale not given here
Method in brief: as §1

S. aureus (ATCC 29213) = experiment: as above; type: cell-based; design: scale not given here
Method in brief: as §1

E. faecium ATCC 49624 = experiment: MIC determination in BHI media, OD600; type: cell-based; conditions: BHI + 0.1% casamino acids, 18 hours at 37° C., ≧90% OD600 inhibition
Experimental: (§2) Logarithmically growing cells were diluted to approximately 5×10^5 CFU/ml and subjected to test compounds solubilized and serially diluted in DMSO. […] After 18 hours at 37° C., the OD600 was determined by reading the ninety-six well microtiter plates on a microplate reader. For a given concentration, an MIC determination was made if: […]

S aureus ATCC 29213 = experiment: MIC determination in BHI media, OD600; type: cell-based; conditions: BHI + 0.1% casamino acids, 18 hours at 37° C., ≧90% OD600 inhibition
Experimental: as §2

S. Aureus ATCC 33591 = experiment: MIC determination in BHI media, OD600; type: cell-based; conditions: BHI + 0.1% casamino acids, 18 hours at 37° C., ≧90% OD600 inhibition
Experimental: as §2

E. faecium CL 4931 = experiment: MIC determination in BHI media, OD600; type: cell-based; conditions: BHI + 0.1% casamino acids, 18 hours at 37° C., ≧90% OD600 inhibition
Experimental: as §2

[2] = zone of inhibition relative to 1 mg/ml stock solution of p-chlorobiphenylvancomycin
[3] = zone of inhibition relative to 1 mg/ml p-chlorobiphenylvancomycin

| SMILES | zone score, E. faecium ATCC 49624 (E. faceium (ATCC 49624); [2]) | zone score, E. faecalis CL 4877 (E. faecalis (CL 4877); [2]) | zone score, S. epidermidis ATCC 12228 [1, 2] | zone score, S. aureus ATCC 29213 (S. aureus (ATCC 29213); [2]) | MIC E. faecium CL 4931 (E. faecium CL 4931) [µg/mL] | further results |
| --- | --- | --- | --- | --- | --- | --- |
| CC1OC(OC2C(Oc3c4cc5cc3Oc3ccc(cc3Cl)C(O)C3NC(=O)C(NC(=O)C5NC(=O)C(CC(N)=O)NC(=O)C(NC(=O)CC(O)C[N+](C)(C)C)C(O)c5ccc(c(Cl)c5)O4)c4ccc(O)c(c4)-c4c(O)cc(O)cc4C(C(=O)O)NC3=O)OC(CO)C(O)C2O)CC(C)(NCc2ccc(-c3ccc(Cl)cc3)cc2)C1O (mixture of isomers) [Compound 151] | 2 | 2 | 2 |  |  |  |
| CC1OC(OC2C(Oc3c4cc5cc3Oc3ccc(cc3Cl)C(O)C3NC(=O)C(NC(=O)C5NC(=O)C(CC(N)=O)NC(=O)C(NC(=O)Cn5cccc(N)c5=O)C(O)c5ccc(c(Cl)c5)O4)c4ccc(O)c(c4)-c4c(O)cc(O)cc4C(C(=O)O)NC3=O)OC(CO)C(O)C2O)CC(C)(NCc2ccc(-c3ccc(Cl)cc3)cc2)C1O (centres unmarked) [Compound 32] | 2 | 2 |  | 2 |  |  |
| CC1OC(OC2C(Oc3c4cc5cc3Oc3ccc(cc3Cl)C(O)C3NC(=O)C(NC(=O)C5NC(=O)C(CC(N)=O)NC(=O)C(NC(=O)CN5CCN(CCN)CC5)C(O)c5ccc(c(Cl)c5)O4)c4ccc(O)c(c4)-c4c(O)cc(O)cc4C(C(=O)O)NC3=O)OC(CO)C(O)C2O)CC(C)(NCc2ccc(-c3ccc(Cl)cc3)cc2)C1O (centres unmarked) [Compound 33] | 2 | 2 |  | 2 |  |  |
| CC(C)CC(N)C(=O)NC1C(=O)NC(CC(N)=O)C(=O)NC2C(=O)NC3C(=O)NC(C(=O)NC(C(=O)O)c4cc(O)cc(O)c4-c4cc3ccc4O)C(O)c3ccc(c(Cl)c3)Oc3cc2cc(c3OC2OC(CO)C(O)C(O)C2OC2CC(C)(NCc3ccc(-c4ccc(Cl)cc4)cc3)C(O)C(C)O2)Oc2ccc(cc2Cl)C1O (centres unmarked) [Compound 38] | 2 |  |  | 2 |  | MIC E. faecium ATCC 49624 (E. faecium ATCC 49624): 0.78 µg/mL; MIC S. aureus ATCC 29213 (S aureus ATCC 29213): 0.78 µg/mL; MIC S. aureus ATCC 33591 (S. Aureus ATCC 33591): 0.78 µg/mL |
| CC1OC(OC2C(Oc3c4cc5cc3Oc3ccc(cc3Cl)C(O)C3NC(=O)C(NC(=O)C5NC(=O)C(CC(N)=O)NC(=O)C(NC(=O)CNC(=O)CN)C(O)c5ccc(c(Cl)c5)O4)c4ccc(O)c(c4)-c4c(O)cc(O)cc4C(C(=O)O)NC3=O)OC(CO)C(O)C2O)CC(C)(NCc2ccc(-c3ccc(Cl)cc3)cc2)C1O (centres unmarked) [Compound 68] | 2 |  |  |  |  | MIC E. faecium ATCC 49624 (E. faecium ATCC 49624): 0.39 µg/mL; MIC S. aureus ATCC 29213 (S aureus ATCC 29213): 0.78 µg/mL; MIC S. aureus ATCC 33591 (S. Aureus ATCC 33591): 0.78 µg/mL |
| CC1OC(OC2C(Oc3c4cc5cc3Oc3ccc(cc3Cl)C(O)C3NC(=O)C(NC(=O)C5NC(=O)C(CC(N)=O)NC(=O)C(NC(=O)C5CC(O)CN5)C(O)c5ccc(c(Cl)c5)O4)c4ccc(O)c(c4)-c4c(O)cc(O)cc4C(C(=O)O)NC3=O)OC(CO)C(O)C2O)CC(C)(NCc2ccc(-c3ccc(Cl)cc3)cc2)C1O (centres unmarked) [Compound 72] | 2 | 2 | 2 |  |  |  |
| CC(=O)NCCCCC(N)C(=O)NC1C(=O)NC(CC(N)=O)C(=O)NC2C(=O)NC3C(=O)NC(C(=O)NC(C(=O)O)c4cc(O)cc(O)c4-c4cc3ccc4O)C(O)c3ccc(c(Cl)c3)Oc3cc2cc(c3OC2OC(CO)C(O)C(O)C2OC2CC(C)(NCc3ccc(-c4ccc(Cl)cc4)cc3)C(O)C(C)O2)Oc2ccc(cc2Cl)C1O (centres unmarked) [Compound 76] | 2 |  | 2 |  |  |  |
| CC1OC(OC2C(Oc3c4cc5cc3Oc3ccc(cc3Cl)C(O)C3NC(=O)C(NC(=O)C5NC(=O)C(CC(N)=O)NC(=O)C(NC(=O)C(N)CCCC[N+](C)(C)C)C(O)c5ccc(c(Cl)c5)O4)c4ccc(O)c(c4)-c4c(O)cc(O)cc4C(C(=O)O)NC3=O)OC(CO)C(O)C2O)CC(C)(NCc2ccc(-c3ccc(Cl)cc3)cc2)C1O.[Cl-] (centres unmarked) [Compound 80] | 2 |  |  | 2 |  |  |
| CC(=O)NCSC(C)(C)C(N)C(=O)NC1C(=O)NC(CC(N)=O)C(=O)NC2C(=O)NC3C(=O)NC(C(=O)NC(C(=O)O)c4cc(O)cc(O)c4-c4cc3ccc4O)C(O)c3ccc(c(Cl)c3)Oc3cc2cc(c3OC2OC(CO)C(O)C(O)C2OC2CC(C)(NCc3ccc(-c4ccc(Cl)cc4)cc3)C(O)C(C)O2)Oc2ccc(cc2Cl)C1O (centres unmarked) [Compound 84] | 2 |  | 2 | 2 |  |  |
| CC1OC(OC2C(Oc3c4cc5cc3Oc3ccc(cc3Cl)C(O)C3NC(=O)C(NC(=O)C5NC(=O)C(CC(N)=O)NC(=O)C(NC(=O)CNC(=O)C5CCCN5)C(O)c5ccc(c(Cl)c5)O4)c4ccc(O)c(c4)-c4c(O)cc(O)cc4C(C(=O)O)NC3=O)OC(CO)C(O)C2O)CC(C)(NCc2ccc(-c3ccc(Cl)cc3)cc2)C1O (centres unmarked) [Compound 85] | 2 | 2 | 2 | 2 |  |  |
| CC1OC(OC2C(Oc3c4cc5cc3Oc3ccc(cc3Cl)C(O)C3NC(=O)C(NC(=O)C5NC(=O)C(CC(N)=O)NC(=O)C(NC(=O)C(CC(N)=O)NC(=O)OC(C)(C)C)C(O)c5ccc(c(Cl)c5)O4)c4ccc(O)c(c4)-c4c(O)cc(O)cc4C(C(=O)O)NC3=O)OC(CO)C(O)C2O)CC(C)(NCc2ccc(-c3ccc(Cl)cc3)cc2)C1O (centres unmarked) [Compound 135] |  |  | 2 | 2 | > 25 | MIC E. faecium ATCC 49624 (E. faecium ATCC 49624): 0.39 µg/mL |
| CC1OC(OC2C(Oc3c4cc5cc3Oc3ccc(cc3Cl)C(O)C3NC(=O)C(NC(=O)C5NC(=O)C(CC(N)=O)NC(=O)C(NC(=O)C(CC[S+](C)[O-])NC(=O)OC(C)(C)C)C(O)c5ccc(c(Cl)c5)O4)c4ccc(O)c(c4)-c4c(O)cc(O)cc4C(C(=O)O)NC3=O)OC(CO)C(O)C2O)CC(C)(NCc2ccc(-c3ccc(Cl)cc3)cc2)C1O (centres unmarked) [Compound 142] | 2 | 2 |  | 2 |  |  |
| CC(=O)c1ccc(C(=O)NC2C(=O)NC(CC(N)=O)C(=O)NC3C(=O)NC4C(=O)NC(C(=O)NC(C(=O)O)c5cc(O)cc(O)c5-c5cc4ccc5O)C(O)c4ccc(c(Cl)c4)Oc4cc3cc(c4OC3OC(CO)C(O)C(O)C3OC3CC(C)(NCc4ccc(-c5ccc(Cl)cc5)cc4)C(O)C(C)O3)Oc3ccc(cc3Cl)C2O)cc1 (centres unmarked) [Compound 267] |  |  |  |  |  | zone score, E. faecium ATCC 49624 (E. faceium (ATCC 49624); [3]): 2; zone score, S. epidermidis ATCC 12228 [1, 3]: 2 |
| CCOCC(=O)NC1C(=O)NC(CC(N)=O)C(=O)NC2C(=O)NC3C(=O)NC(C(=O)NC(C(=O)O)c4cc(O)cc(O)c4-c4cc3ccc4O)C(O)c3ccc(c(Cl)c3)Oc3cc2cc(c3OC2OC(CO)C(O)C(O)C2OC2CC(C)(NCc3ccc(-c4ccc(Cl)cc4)cc3)C(O)C(C)O2)Oc2ccc(cc2Cl)C1O (centres unmarked) [Compound 287] |  |  |  |  | 25 | zone score, E. faecalis CL 4877 (E. faecalis (CL 4877); [3]): 2; zone score, S. aureus ATCC 29213 (S. aureus (ATCC 29213); [3]): 2; zone score, S. epidermidis ATCC 12228 [1, 3]: 2 |
| COCC(=O)NC1C(=O)NC(CC(N)=O)C(=O)NC2C(=O)NC3C(=O)NC(C(=O)NC(C(=O)O)c4cc(O)cc(O)c4-c4cc3ccc4O)C(O)c3ccc(c(Cl)c3)Oc3cc2cc(c3OC2OC(CO)C(O)C(O)C2OC2CC(C)(NCc3ccc(-c4ccc(Cl)cc4)cc3)C(O)C(C)O2)Oc2ccc(cc2Cl)C1O (centres unmarked) [Compound 303] |  |  |  |  | 25 | zone score, S. epidermidis ATCC 12228 [1, 3]: 2 |
| CC1OC(OC2C(Oc3c4cc5cc3Oc3ccc(cc3Cl)C(O)C3NC(=O)C(NC(=O)C5NC(=O)C(CC(N)=O)NC(=O)C(NC(=O)C(N)CSCc5ccccc5)C(O)c5ccc(c(Cl)c5)O4)c4ccc(O)c(c4)-c4c(O)cc(O)cc4C(C(=O)O)NC3=O)OC(CO)C(O)C2O)CC(C)(NCc2ccc(-c3ccc(Cl)cc3)cc2)C1O (centres unmarked) [Compound 332] |  |  |  |  | 25 |  |
| CNC(COC(C)(C)C)C(=O)NC1C(=O)NC(CC(N)=O)C(=O)NC2C(=O)NC3C(=O)NC(C(=O)NC(C(=O)O)c4cc(O)cc(O)c4-c4cc3ccc4O)C(O)c3ccc(c(Cl)c3)Oc3cc2cc(c3OC2OC(CO)C(O)C(O)C2OC2CC(C)(NCc3ccc(-c4ccc(Cl)cc4)cc3)C(O)C(C)O2)Oc2ccc(cc2Cl)C1O (centres unmarked) [Compound 343] |  |  |  |  | 25 | MIC E. faecium ATCC 49624 (E. faecium ATCC 49624): 0.39 µg/mL; MIC S. aureus ATCC 33591 (S. Aureus ATCC 33591): 0.78 µg/mL |
| CC(OC(C)(C)C)C(N)C(=O)NC1C(=O)NC(CC(N)=O)C(=O)NC2C(=O)NC3C(=O)NC(C(=O)NC(C(=O)O)c4cc(O)cc(O)c4-c4cc3ccc4O)C(O)c3ccc(c(Cl)c3)Oc3cc2cc(c3OC2OC(CO)C(O)C(O)C2OC2CC(C)(NCc3ccc(-c4ccc(Cl)cc4)cc3)C(O)C(C)O2)Oc2ccc(cc2Cl)C1O (centres unmarked) [Compound 344] |  |  |  |  | 25 | MIC E. faecium ATCC 49624 (E. faecium ATCC 49624): 0.78 µg/mL |
